The numbers were not newly measured in patent US9321030B2, “Clay-containing thin films as carriers of absorbed molecules” (priority 2012, dated 2016), which cites them from elsewhere.

The test system of one series is S. aureus ATCC 12600. As to conditions: known value.
The subject of series [1] is Mycobacterium tuberculosis.
In series [2] the test system is Pseudomonas aeruginosa biofilms.
Series [3] deals with multi-drug resistant strains of gram-positive and gram-negative bacteria. As to conditions: clinically relevant multi-drug resistant strains.

Take gentamicin: the minimum inhibitory concentration with S. aureus ATCC 12600 was 1 µg/mL.

Consider H—(NLys-Nspe-Nspe)4-NH2 [Peptoid 1], for which the result in series [1] was active. Also, in series [2], the activity against biofilms result is “active”. Further, in series [3], the “efficacy against planktonic cells” value is listed as “demonstrated efficacy”.
